Source: publication PMC2989642 (The European journal of neuroscience, 2010)

How the values were obtained:
[1] = target: α3β4 receptors (in the α5β2 KO) (Mus musculus, UniProt Q8R493+Q8R4G9); test: cell-based
[2] = target: α3β2 receptors (in the α5β4 KO) (Mus musculus, UniProt Q8R4G9+Q9ERK7); test: cell-based; format: cell-based
α3β2 receptors (in the α5β4 KO), sequence (Q8R4G9 26-499): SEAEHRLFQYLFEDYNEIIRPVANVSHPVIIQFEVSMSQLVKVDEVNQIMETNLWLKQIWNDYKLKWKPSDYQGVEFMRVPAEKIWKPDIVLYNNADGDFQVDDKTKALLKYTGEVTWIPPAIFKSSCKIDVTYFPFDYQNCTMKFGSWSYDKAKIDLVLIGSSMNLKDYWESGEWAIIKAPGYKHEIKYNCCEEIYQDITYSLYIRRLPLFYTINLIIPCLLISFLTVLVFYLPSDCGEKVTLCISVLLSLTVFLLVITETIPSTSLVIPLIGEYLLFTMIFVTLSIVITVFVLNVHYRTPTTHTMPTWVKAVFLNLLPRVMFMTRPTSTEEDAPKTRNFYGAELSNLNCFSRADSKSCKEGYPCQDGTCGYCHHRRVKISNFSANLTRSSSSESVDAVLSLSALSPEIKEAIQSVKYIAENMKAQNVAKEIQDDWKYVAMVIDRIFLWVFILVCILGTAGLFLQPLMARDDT
α3β2 receptors (in the α5β4 KO), sequence (Q9ERK7 26-501): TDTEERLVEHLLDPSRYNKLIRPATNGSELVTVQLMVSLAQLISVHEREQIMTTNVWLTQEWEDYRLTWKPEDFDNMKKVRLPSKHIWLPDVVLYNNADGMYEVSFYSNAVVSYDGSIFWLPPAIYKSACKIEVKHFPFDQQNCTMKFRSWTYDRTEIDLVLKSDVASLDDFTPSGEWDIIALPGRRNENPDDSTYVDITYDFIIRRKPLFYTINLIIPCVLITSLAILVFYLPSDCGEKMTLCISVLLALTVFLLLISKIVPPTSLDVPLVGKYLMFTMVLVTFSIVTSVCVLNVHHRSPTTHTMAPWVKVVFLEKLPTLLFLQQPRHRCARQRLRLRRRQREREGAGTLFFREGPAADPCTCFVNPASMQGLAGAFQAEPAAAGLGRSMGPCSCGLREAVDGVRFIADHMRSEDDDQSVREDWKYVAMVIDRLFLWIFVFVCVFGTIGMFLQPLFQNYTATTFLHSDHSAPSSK

α3β4 receptors (in the α5β2 KO), sequence (Q8R4G9 26-499): as the sequence (Q8R4G9 26-499) above
α3β4 receptors (in the α5β2 KO), sequence (Q8R493 21-495): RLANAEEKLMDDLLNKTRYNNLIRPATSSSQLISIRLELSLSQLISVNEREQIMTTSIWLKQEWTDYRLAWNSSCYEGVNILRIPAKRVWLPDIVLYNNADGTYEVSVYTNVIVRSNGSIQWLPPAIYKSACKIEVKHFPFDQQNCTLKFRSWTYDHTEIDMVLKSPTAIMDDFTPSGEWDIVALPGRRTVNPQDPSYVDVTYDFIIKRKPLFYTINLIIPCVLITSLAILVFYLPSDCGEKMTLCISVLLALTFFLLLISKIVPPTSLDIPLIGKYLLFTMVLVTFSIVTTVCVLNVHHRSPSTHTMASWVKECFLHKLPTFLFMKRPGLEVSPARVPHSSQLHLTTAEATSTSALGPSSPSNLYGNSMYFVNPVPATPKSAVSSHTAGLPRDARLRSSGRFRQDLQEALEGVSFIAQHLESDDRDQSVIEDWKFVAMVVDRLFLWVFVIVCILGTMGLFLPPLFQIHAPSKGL

α-conotoxin AuIB
recovery of the inhibition [1]: Fast and full recovery
effect on currents induced by 300 μM ACh [2]: did not affect
